These results are taken from patent publication US11179380B2, “Compounds and compositions for use in treating psoriasis” (SOLVOTRIN THERAPEUTICS LTD, priority 2017, dated 2021).

The nature of the series: Log P from reversed-phase TLC Rf/Rm values (MeOH in water mobile phases). As to conditions: for Rm: calculated from Rf. How it is done: The partition coefficient (P) is used to describe the lipophilicity of a drug. It is defined as the ratio of equilibrium concentrations of a drug in an organic phase (Corg) and an aqueous phase (Caq).
Most commonly the organic solvent is n-octanol and the other solvent is water. Hydrophobic molecules will have a high P value while hydrophilic molecules will have a low P value.
Rm values were calculated from Rf values that were obtained at three different mobile phase compositions (40, 50 and 60% MeOH in water).
The Rm value was calculated using the following equation: […]
The theoretical Rm value at 0% organic modifier was calculated by extrapolating from the calibration curves that were obtained. These values were then correlated to the literature log P of two reference compounds (methyl benzoate and paracetamol).

Like-named read-outs stand apart in the source and are kept apart here.

Take `O=[N+]([O-])O[C@@H]1CO[C@H]2[C@@H]1OC[C@@H]2O` [ISMN, isosorbide mononitrate, reference compound]: the Rf (40% MeOH in water) was found to be 0.6060, the Rf (50% MeOH in water) was 0.6530 and the Rf (60% MeOH in water) amounted to 0.7000. Moreover, the Rm is, setting by setting: (40% MeOH in water) −0.1870; (50% MeOH in water) −0.2746; (60% MeOH in water) −0.3680. Besides, the “Log P (calculated)” value (from extrapolated Rm correlated to literature log P of methyl benzoate and paracetamol) was −0.333. Moreover, the “Extrapolated Rm (y value)” value (theoretical Rm at 0% organic modifier) was 0.176.
For the molecule `CC(=O)OC1COC2C(OC(=O)c3cccnc3)COC12` (stereo not drawn) [Isosorbide-2-Acetate-5-nicotinate, Isosorbide 2-acetate-5-nicotinate], the “Extrapolated Rm (y value)” value is on record as 1.2763 and the “Log P (calculated)” value was 1.3369. For the setting “40% MeOH in water”, the Rf turned out to be 0.2860 and the Rm is 0.3973. Moreover, for the setting “50% MeOH in water”, the Rf was found to be 0.3730 and the Rm is reported as 0.2256. Besides, for the setting “60% MeOH in water”, the Rf came out at 0.5200 and the Rm was −0.0348.
As to `O=C(OC1COC2C(OC(=O)c3cccnc3)COC12)c1ccccc1` (stereo not drawn) [Isosorbide-2-Benzoate-5-nicotinate, Isosorbide 2-benzoate-5-nicotinate], the “Extrapolated Rm (y value)” value is listed as 3.5292 and the “Log P (calculated)” value was 4.7555. Under “40% MeOH in water”, the Rf is on record as 0.0260 and the Rm is 1.5736. For the setting “50% MeOH in water”, the Rf is 0.0870 and the Rm is 1.0210. For the same molecule, under “60% MeOH in water”, the Rf is listed as 0.2060 and the Rm was 0.5860.
Turning to `CCCC(=O)O[C@H]1CO[C@H]2[C@@H]1OC[C@H]2OC(=O)c1cccnc1` [Isosorbide-2-Butyrate-5-nicotinate, Isosorbide 2-butyrate-5-nicotinate], the “Extrapolated Rm (y value)” value is listed as 2.2483 and the “Log P (calculated)” value is on record as 2.8118. For the same molecule, for the setting “40% MeOH in water”, the Rf was found to be 0.1060 and the Rm is on record as 0.9260. Moreover, for the setting “50% MeOH in water”, the Rf turned out to be 0.2067 and the Rm was 0.5841. In addition, for the setting “60% MeOH in water”, the Rf worked out at 0.3530 and the Rm is given as 0.2631.
For `CCC(=O)OC1COC2C(OC(=O)c3cccnc3)COC12` (stereo not drawn) [Isosorbide-2-Propionate-5-nicotinate, Isosorbide 2-propionate-5-nicotinate], the “Extrapolated Rm (y value)” value is listed as 1.9553 and the “Log P (calculated)” value is listed as 2.367. Under “40% MeOH in water”, the Rf was 0.1600 and the Rm is recorded as 0.7202. Besides, for the setting “50% MeOH in water”, the Rf was determined as 0.2730 and the Rm is reported as 0.4254. For the same molecule, where the note is “60% MeOH in water”, the Rf came to 0.4400 and the Rm is 0.1047.
For `CCCCC(=O)O[C@H]1CO[C@H]2[C@@H]1OC[C@H]2OC(=O)c1cccnc1` [Isosorbide-2-Valeroate-5-nicotinate, Isosorbide 2-valeroate-5-nicotinate], the “Extrapolated Rm (y value)” value is 2.9143 and the “Log P (calculated)” value is 3.8225. Besides, where the note is “40% MeOH in water”, the Rf worked out at 0.0530 and the Rm is 1.2521. Under “50% MeOH in water”, the Rf is on record as 0.1200 and the Rm was 0.8653. Further, where the note is “60% MeOH in water”, the Rf is on record as 0.2730 and the Rm is given as 0.4254.
